Data as given in ChEMBL document CHEMBL1125556, “Fluoroquinolones: relationships between structural variations, mammalian cell cytotoxicity, and antimicrobial activity” (J Med Chem, 1992).
Converted amounts (≈) assume the structure as drawn.

Legend:
[1] = Antibacterial activity against five Gram-negative bacteria; format: functional
V79 = assay: Mammalian cell cytotoxicity test in chinese hamster V79 cells (clonogenic cytotoxicity); format: functional, cell-based
[2] = Cricetulus griseus, V79, read-out: IC50

| Compound | MIC ([1]; read-out: MIC) | IC50 (V79; [2]) | MIC [1] | IC50 (V79; v79) |
| --- | --- | --- | --- | --- |
| CCNCC1CCN(c2c(F)c(Cl)c3c(=O)c(C(=O)O)cn(C4CC4)c3c2Cl)C1 (stereo not drawn) | 0.6 µg/mL (≈ 1.36 µM) | 270 µg/mL (≈ 610 µM) |  |  |
| NC1CCCN(c2c(F)cc3c(=O)c(C(=O)O)cn(C4CC4)c3c2F)C1 (stereo not drawn) | 0.13 µg/mL (≈ 0.358 µM) | 53 µg/mL (≈ 146 µM) |  |  |
| NCC1CCN(c2c(F)cc3c(=O)c(C(=O)O)cn(C4CC4)c3c2Cl)C1 (stereo not drawn) | 0.06 µg/mL (≈ 0.158 µM) | 8 µg/mL (≈ 21.1 µM) |  |  |
| CC1(CN)CCN(c2c(F)cc3c(=O)c(C(=O)O)cn(C4CC4)c3c2F)C1 (stereo not drawn) | 0.13 µg/mL (≈ 0.344 µM) | 8 µg/mL (≈ 21.2 µM) |  |  |
| CC1CN(c2c(F)cc3c(=O)c(C(=O)O)cn(C4CC4)c3c2C(F)(F)F)CC(C)N1 (stereo not drawn) | 0.91 µg/mL (≈ 2.13 µM) | > 500 µg/mL |  |  |
| COc1c(N2CCC(CN)C2)c(F)cc2c(=O)c(C(=O)O)cn(C3CC3)c12 (stereo not drawn) | 0.11 µg/mL (≈ 0.293 µM) | 10 µg/mL (≈ 26.6 µM) |  |  |
| CCNCC1CCN(c2c(F)cc3c(=O)c(C(=O)O)cn(CC)c3c2F)C1 (stereo not drawn) [MERAFLOXACIN] | 0.2 µg/mL (≈ 0.527 µM) | 160 µg/mL (≈ 422 µM) |  |  |
| NCC1CCN(c2c(F)cc3c(=O)c(C(=O)O)cn(C4CC4)c3c2C(F)(F)F)C1 (stereo not drawn) | 0.52 µg/mL (≈ 1.26 µM) | 38 µg/mL (≈ 91.9 µM) |  |  |
| C=Cn1cc(C(=O)O)c(=O)c2cc(F)c(N3CCC(N)C3)c(F)c21 (stereo not drawn) | 0.13 µg/mL (≈ 0.388 µM) | 310 µg/mL (≈ 925 µM) |  |  |
| NC1CCN(c2c(F)cc3c(=O)c(C(=O)O)cn(C4CC4)c3c2[N+](=O)[O-])C1 (stereo not drawn) | 0.46 µg/mL (≈ 1.22 µM) | 69 µg/mL (≈ 183 µM) |  |  |
| CCNCC1CCN(c2c(F)cc3c(=O)c(C(=O)O)cn(C4CC4)c3c2N)C1 (stereo not drawn) | 0.91 µg/mL (≈ 2.34 µM) | 290 µg/mL (≈ 747 µM) |  |  |
| CN1CCN(c2c(F)cc3c(=O)c(C(=O)O)cn(CCF)c3c2F)CC1 [FLEROXACIN] | 0.35 µg/mL (≈ 0.948 µM) | > 500 µg/mL |  |  |
| CNCC1(C)CCN(c2c(F)cc3c(=O)c(C(=O)O)cn(C4CC4)c3c2C(F)(F)F)C1 (stereo not drawn) | > 30 µg/mL | 230 µg/mL (≈ 521 µM) |  |  |
| CCNCC1CCN(c2c(F)c(NC(C)=O)c3c(=O)c(C(=O)O)cn(C4CC4)c3c2F)C1 (stereo not drawn) | > 25 µg/mL | > 500 µg/mL |  |  |
| Nc1c(F)c(N2CCC(N)C2)c(Cl)c2c1c(=O)c(C(=O)O)cn2C1CC1 (stereo not drawn) | 0.08 µg/mL (≈ 0.21 µM) | 59 µg/mL (≈ 155 µM) |  |  |
| O=C(O)c1cn(C2CC2)c2nc(N3CCNCC3)c(F)cc2c1=O | 0.09 µg/mL (≈ 0.271 µM) | 120 µg/mL (≈ 361 µM) |  |  |
| CCNCC1CCN(c2cc3c(cc2F)c(=O)c(C(=O)O)cn3-c2ccc(F)cc2F)C1 (stereo in doubt; 17) |  |  | 0.8 µg/mL (≈ 1.8 µM) | 190 µg/mL (≈ 427 µM) |
| CC1COc2c(N3CCN(C)CC3)c(F)cc3c(=O)c(C(=O)O)cn1c23 (stereo not drawn) [OFLOXACIN] | 0.2 µg/mL (≈ 0.553 µM) | > 500 µg/mL |  |  |
| Nc1c(N2CCC(N)C2)c(F)cc2c(=O)c(C(=O)O)cn(C3CC3)c12 (stereo not drawn) | 0.53 µg/mL (≈ 1.53 µM) | 260 µg/mL (≈ 751 µM) |  |  |

| Compound | MIC ([1]; read-out: MIC) | IC50 (V79; [2]) | MIC [1] | IC50 (V79; v79) |
| --- | --- | --- | --- | --- |
| CCn1cc(C(=O)O)c(=O)c2cc(F)c(N3CCNCC3)cc21 [NORFLOXACIN] | 0.06 µg/mL (≈ 0.188 µM) | > 500 µg/mL |  |  |
| CCNCC1CCN(c2cc3c(cc2F)c(=O)c(C(=O)O)cn3C2CC2)C1 (stereo in doubt; 26a) | 0.46 µg/mL (≈ 1.23 µM) | 160 µg/mL (≈ 428 µM) |  |  |
| O=C(O)c1cn(C2CC2)c2c(F)c(N3CCNCC3)c(F)cc2c1=O | 0.07 µg/mL (≈ 0.2 µM) | 47 µg/mL (≈ 135 µM) |  |  |
| CSc1c(F)c(N2CCC(N)C2)cc2c1c(=O)c(C(=O)O)cn2C1CC1 (stereo not drawn) | > 1.58 µg/mL | 92 µg/mL (≈ 244 µM) |  |  |
| CNCC1(C)CCN(c2c(F)cc3c(=O)c(C(=O)O)cn(C4CC4)c3c2OC)C1 (stereo not drawn) | 0.52 µg/mL (≈ 1.29 µM) | 120 µg/mL (≈ 297 µM) |  |  |
| CC1(N)CCN(c2c(F)cc3c(=O)c(C(=O)O)cn(C4CC4)c3c2C(F)(F)F)C1 (stereo not drawn) | 1 µg/mL (≈ 2.42 µM) | 110 µg/mL (≈ 266 µM) |  |  |
| CCNCC1CCN(c2cc3c(cc2F)c(=O)c(C(=O)O)cn3-c2ccc(F)cc2F)C1 (stereo in doubt; 36b) | 0.8 µg/mL (≈ 1.8 µM) | 190 µg/mL (≈ 427 µM) |  |  |
| O=C(O)c1cn(C2CC2)c2c(Cl)c(N3CCCC3)c(F)cc2c1=O | 0.1 µg/mL (≈ 0.285 µM) | 150 µg/mL (≈ 428 µM) |  |  |
| Nc1c(F)c(N2CCC(N)C2)c(F)c2c1c(=O)c(C(=O)O)cn2C1CC1 (stereo not drawn) | 0.01 µg/mL (≈ 0.0274 µM) | 15 µg/mL (≈ 41.2 µM) |  |  |
| NC1CCN(c2c(F)cc3c(=O)c(C(=O)O)cn(C4CC4)c3c2F)C1 (stereo in doubt; 24b) |  |  | 0.04 µg/mL (≈ 0.115 µM) | 30 µg/mL (≈ 85.9 µM) |
| O=C(O)c1cn(C2CC2)c2c(C(F)(F)F)c(N3CCCC3)c(F)cc2c1=O | 12.5 µg/mL (≈ 32.5 µM) | 280 µg/mL (≈ 729 µM) |  |  |
| CC1CN(c2c(F)cc3c(=O)c(C(=O)O)cn(C4CC4)c3c2C(F)(F)F)CCN1 (stereo not drawn) | 0.6 µg/mL (≈ 1.45 µM) | 220 µg/mL (≈ 532 µM) |  |  |
| NCC1CCN(c2c(F)cc3c(=O)c(C(=O)O)cn(C4CC4)c3c2F)C1 (stereo not drawn) | 0.05 µg/mL (≈ 0.138 µM) | 11 µg/mL (≈ 30.3 µM) |  |  |
| NC1CCN(c2nc3c(cc2F)c(=O)c(C(=O)O)cn3-c2ccc(F)cc2F)C1 (stereo not drawn) [TOSUFLOXACIN] | 0.09 µg/mL (≈ 0.223 µM) | 128 µg/mL (≈ 317 µM) |  |  |
| O=C(O)c1cn(C2CC2)c2nc(N3CCCC3)c(F)cc2c1=O | 0.26 µg/mL (≈ 0.819 µM) | 58 µg/mL (≈ 183 µM) |  |  |
| O=C(O)c1cn(C2CC2)c2cc(N3CCNCC3)c(F)cc2c1=O [CIPROFLOXACIN] | 0.1 µg/mL (≈ 0.302 µM) | 380 µg/mL (≈ 1150 µM) | 0.1 µg/mL (≈ 0.302 µM) | 380 µg/mL (≈ 1150 µM) |
| O=C(O)c1cn(-c2ccc(F)cc2F)c2cc(N3CCNCC3)c(F)cc2c1=O | 0.11 µg/mL (≈ 0.273 µM) | > 500 µg/mL |  |  |
| CC1CN(c2c(F)cc3c(=O)c(C(=O)O)cn(-c4ccc(F)cc4F)c3c2Cl)CCN1 (stereo not drawn) | 2.07 µg/mL (≈ 4.58 µM) | > 500 µg/mL |  |  |
| CNCC1(C)CCN(c2c(F)cc3c(=O)c(C(=O)O)cn(C4CC4)c3c2Cl)C1 (stereo not drawn) | 0.26 µg/mL (≈ 0.637 µM) | 23 µg/mL (≈ 56.4 µM) |  |  |
